Source: ChEMBL document CHEMBL1127119, “Pneumocandin antifungal lipopeptides. The phenolic hydroxyl is required for 1,3--glucan synthesis inhibition” (Bioorg Med Chem Lett, 1993)
In brackets after ≈: the same amount, converted by molar mass. Numbered stars: 1 amine (or outer) side, 2 acyl side, 3 side chain; on linkers, the order of the positions; unused ones are H or OH. Bridge positions count the residues as written; N and C are the ends. Square brackets hold non-standard residues; d marks the D form. Peptide text beside a SMILES is read from it. * marks the point of attachment. Orn(4R-OH,5R-OH) = O=C([C@H](C[C@@H](O)[C@@H](O)N[*:3])N[*:1])[*:2]; X3 = O=C([C@@H](N[*:1])[C@H](O)[C@@H](O)c1ccc(OP(=O)(O)O)cc1)[*:2]; hTyr(3S-OH,4S-OH) = N[C@H](C(=O)O)[C@H](O)[C@@H](O)c1ccc(O)cc1; X4 = O=C([C@@H](N[*:1])[C@H](O)[C@H](O)c1ccc(O)cc1)[*:2]; X2 = O=C([C@@H](N[*:1])[C@H](O)[C@@H](O)c1ccccc1)[*:2]; X6 = O=C(Oc1ccc(O)cc1)[C@@H](O)[C@H](N[*:1])C(=O)[*:2]; hTyr(3R-OH) = N[C@H](C(=O)O)[C@H](O)Cc1ccc(O)cc1; Gln(3R-OH) = NC(=O)C[C@@H](O)[C@H](N)C(=O)O; X5 = O=C([C@@H](N[*:1])[C@H](O)CO)[*:2]; Pro(3S-OH) = O=C(O)[C@H]1NCC[C@@H]1O; Hyp = O=C(O)[C@@H]1C[C@@H](O)CN1; X1 = CCC(C)CC(C)CCCCCCCCC(=O)*

What was measured:
Candida albicans [1] = experiment: The compound was tested for its antifungal activity against Candida albicans (MY1055); assay type: functional
Mus musculus [2] = experiment: Minimum effective dose required for 99.9% reduction of viable CFUs recoverable from mouse kidneys infected with Candida albicans (MY1208) using in vivo Target Organ Kidney Assay (TOKA); assay type: functional
Candida albicans [3] = experiment: The compound was tested for inhibition of 1,3-beta-glucan synthesis in a preparation containing membranes from Candida albicans (MY1208); assay type: functional
Candida parapsilosis = experiment: The compound was tested for its antifungal activity against Candida parapsilosis (MY1010); assay type: functional; settings: Lodderomyces parapsilosis
Candida tropicalis = experiment: The compound was tested for its antifungal activity against Candida tropicalis (MY1012); assay type: functional
Mus musculus [4] = species: Mus musculus; experiment: Minimum effective dose required for 99.9% reduction of viable CFUs recoverable from mouse kidneys compared with sham-treated controls.; assay type: functional, Kidney

| SMILES | MFC (Candida albicans [1]) [µg/mL] | MED99.9 (Mus musculus [2]) [mg/kg] | IC50 (Candida albicans [3]) [µM] | MFC (Candida parapsilosis) [µg/mL] | MFC (Candida tropicalis) [µg/mL] | MED99.9 (Mus musculus [4]) [mg/kg] |
| --- | --- | --- | --- | --- | --- | --- |
| CCC(C)CC(C)CCCCCCCCC(=O)N[C@H]1C[C@@H](O)[C@@H](O)NC(=O)[C@@H]2[C@@H](O)CCN2C(=O)[C@H]([C@H](O)CC(N)=O)NC(=O)[C@H]([C@H](O)[C@@H](O)c2ccccc2)NC(=O)[C@@H]2C[C@@H](O)CN2C(=O)[C@H]([C@@H](C)O)NC1=O (stereo partly drawn) (X1-[Orn(4R-OH,5R-OH)]T[Hyp][X2][Gln(3R-OH)][Pro(3S-OH)]; lactam 1-C) | 4 (≈ 3.81 µM) | >6 | > 10 | > 128 | 1 (≈ 0.953 µM) | – |
| CCC(C)CC(C)CCCCCCCCC(=O)N[C@H]1C[C@@H](O)[C@@H](O)NC(=O)[C@@H]2[C@@H](O)CCN2C(=O)[C@H]([C@H](O)CC(N)=O)NC(=O)[C@H]([C@H](O)[C@@H](O)c2ccc(OP(=O)(O)O)cc2)NC(=O)[C@@H]2C[C@@H](O)CN2C(=O)[C@H]([C@@H](C)O)NC1=O (stereo partly drawn) (X1-[Orn(4R-OH,5R-OH)]T[Hyp][X3][Gln(3R-OH)][Pro(3S-OH)]; lactam 1-C) | 2 (≈ 1.75 µM) | 6 | > 10 | 32 (≈ 27.9 µM) | 4 (≈ 3.49 µM) | – |
| CCC(C)CC(C)CCCCCCCCC(=O)N[C@H]1C[C@@H](O)[C@@H](O)NC(=O)[C@@H]2[C@@H](O)CCN2C(=O)[C@H]([C@H](O)CC(N)=O)NC(=O)[C@H]([C@H](O)[C@H](O)c2ccc(O)cc2)NC(=O)[C@@H]2C[C@@H](O)CN2C(=O)[C@H]([C@@H](C)O)NC1=O (stereo partly drawn) (X1-[Orn(4R-OH,5R-OH)]T[Hyp][X4][Gln(3R-OH)][Pro(3S-OH)]; lactam 1-C) | 8 (≈ 7.51 µM) | – | 5 | > 128 | 64 (≈ 60.1 µM) | >6 |
| CCC(C)CC(C)CCCCCCCCC(=O)N[C@H]1C[C@@H](O)[C@@H](O)NC(=O)[C@@H]2[C@@H](O)CCN2C(=O)[C@H]([C@H](O)CC(N)=O)NC(=O)[C@H]([C@H](O)CO)NC(=O)[C@@H]2C[C@@H](O)CN2C(=O)[C@H]([C@@H](C)O)NC1=O (stereo partly drawn) (X1-[Orn(4R-OH,5R-OH)]T[Hyp][X5][Gln(3R-OH)][Pro(3S-OH)]; lactam 1-C) | 32 (≈ 32.9 µM) | – | > 1 | 8 (≈ 8.22 µM) | 8 (≈ 8.22 µM) | – |
| CCC(C)CC(C)CCCCCCCCC(=O)N[C@H]1C[C@@H](O)[C@@H](O)NC(=O)[C@@H]2[C@@H](O)CCN2C(=O)[C@H]([C@H](O)CC(N)=O)NC(=O)[C@H]([C@H](O)C(=O)Oc2ccc(O)cc2)NC(=O)[C@@H]2C[C@@H](O)CN2C(=O)[C@H]([C@@H](C)O)NC1=O (stereo partly drawn) (X1-[Orn(4R-OH,5R-OH)]T[Hyp][X6][Gln(3R-OH)][Pro(3S-OH)]; lactam 1-C) | 32 (≈ 29.7 µM) | – | > 1 | 1 (≈ 0.927 µM) | 8 (≈ 7.41 µM) | – |
| CCC(C)CC(C)CCCCCCCCC(=O)N[C@H]1C[C@@H](O)[C@@H](O)NC(=O)[C@@H]2[C@@H](O)CCN2C(=O)[C@H]([C@H](O)CC(N)=O)NC(=O)[C@H]([C@H](O)Cc2ccc(O)cc2)NC(=O)[C@@H]2C[C@@H](O)CN2C(=O)[C@H]([C@@H](C)O)NC1=O (stereo partly drawn) (X1-[Orn(4R-OH,5R-OH)]T[Hyp][hTyr(3R-OH)][Gln(3R-OH)][Pro(3S-OH)]; lactam 1-C) | 0.25 (≈ 0.238 µM) | – | 0.04 | 4 (≈ 3.81 µM) | < 0.06 | 3 |
| CCC(C)CC(C)CCCCCCCCC(=O)N[C@H]1C[C@@H](O)[C@@H](O)NC(=O)[C@@H]2[C@@H](O)CCN2C(=O)[C@H]([C@H](O)CC(N)=O)NC(=O)[C@H]([C@H](O)[C@@H](O)c2ccc(O)cc2)NC(=O)[C@@H]2C[C@@H](O)CN2C(=O)[C@H]([C@@H](C)O)NC1=O (stereo partly drawn) (X1-[Orn(4R-OH,5R-OH)]T[Hyp][hTyr(3S-OH,4S-OH)][Gln(3R-OH)][Pro(3S-OH)]; lactam 1-C) | 0.25 (≈ 0.235 µM) | 6 | 0.07 | 4 (≈ 3.76 µM) | 0.06 (≈ 0.0563 µM) | – |
